Data on 1 molecule can be found in patent US20260000658A1, “METHODS FOR THE TREATMENT OF PROLIFERATIVE GLOMERULONEPHRITIS” (INSTITUT NATIONAL DE LA SANTÉ ET DE LA RECHERCHE MÉDICALE, priority 2022, published 2026).

One data set concerns MRL-lpr mice. Nature of the data set: MRL-lpr mice, 12 weeks old, treated for 4 weeks. Type of data set: in vivo, mouse. The protocol: For the uninephrectomy experiments, the right kidneys were removed under anesthesia. For the medical treatment of mice, 50 mg kg −1 alpelisib (MedChem Tronica) in 1% carboxymethylcellulose (Sigma Aldrich)+0.5% Tween (Sigma Aldrich) or vehicle (1% carboxymethylcellulose+0.5% Tween) was administered by oral gavage daily for the indicated periods of time. Blood and urines were obtained at the indicated times. At euthanasia, blood, urines, kidneys were harvested. In some experiments, spleens, hearts, and bone marrow (BM) in femurs and tibias were harvested as well. Tissues were fixed in 4% paraformaldehyde and paraffin embedded for immunohistochemical analysis, snap-frozen in Optimal Cutting Temperature (OCT), or stored at −80° C. for mRNA or protein analysis.
Mouse blood counts were analyzed using a hematology analyzer (ProCyte Dx; IDEXX Laboratories). Mouse serum creatinine, blood urea nitrogen, urinary albumin, and urinary creatinine were evaluated using an AU5800 (Beckman Coulter) autoanalyzer. Serum anti-dsDNA measurement was performed according to the manufacturer's instruction using mouse anti-dsDNA ELISA kit (LBIS). The absorbance was measured using Ininite M Nano (TECAN).
4-μm kidney sections were stained with periodic acid-Schiff (PAS), Masson's Trichrome (MT), Periodic acid metenamine silver (PAM) or Hematoxylin and Eosin (HE) staining for histological analysis. The degree of glomerular lesions was evaluated using the following scoring system: 0=no lesion, 1=affecting up to 25% of the glomerulus, 2=affecting 25-50% of the glomerulus, 3=affecting 50-75% of the glomerulus, and 4=affecting 75-100%. At least 50 glomeruli per sample were measured for each analysis. An indirect immunoperoxidase method was used for immunohistochemistry. Briefly, after deparaffinization, antigen retrieval was performed with citrate buffer (pH6) or Tris-EDTA buffer (pH9 or pH6) using microwave or high temperature (95° C.). Endogenous peroxidase activity was quenched using 3% hydrogen peroxide; nonspecific protein binding was blocked using 2.5% normal horse serum (Vector Laboratories), and endogenous biotin activity was quenched using the Avidin/Biotin Blocking Kit (Vector Laboratories). When using mouse primary antibodies on mouse tissue, Klear mouse blocking reagent (Diagomics) was used to block endogenous mouse immunoglobulins. After blocking, the tissue sections were incubated with the primary antibodies overnight at 4° C. The following primary antibodies were used: rabbit anti-Ki67 antibody (SP6; Thermo Fisher Scientific), rabbit anti-P-S6RP antibody (D68F8; Cell Signaling Technology), mouse anti-P-AKT (Ser473) antibody (587F11; Cell Signaling Technology), rabbit anti-P-AKT (Thr308) antibody (C31E5E; Cell Signaling Technology), mouse anti-S6RP antibody (54E2; Cell Signaling Technology), chicken anti-GFP antibody (Abcam), guinea pig anti-Nephrin antibody (GP-N2; Progen), rabbit anti-Podocin antibody (P0372; Sigma Aldrich), mouse anti-WTI antibody (6F-H2; DAKO). The corresponding secondary antibodies including anti-mouse IgG, anti-rabbit IgG, anti-guinea pig IgG, biotinylated anti-rabbit IgG (Vector Laboratories), and biotinylated anti-mouse IgG (Vector Laboratories) were applied. For Avidin/Biotin detection, an R.T.U. Vectastain Kit (Vector Laboratories) or streptavidin (Thermo Fisher Scientific) was used. The immunoreactive antigens sites were detected with hydrogen peroxide and diaminobenzidine. For frozen immunofluorescent staining, frozen tissue sections (4 μm) were briefly air dried and fixed in 50% methanol/50% acetone. The sections were then blocked with 2.5% normal horse serum and incubated with primary antibodies: guinea pig anti-Nephrin antibody (GP-N2; Progen) overnight at 4° C. The sections were then incubated at room temperature for 40 min with secondary antibodies: fluorescein isothiocyanate-conjugated (FITC) anti-mouse IgG (Sigma Aldrich), FITC anti-mouse IgM (BD Biosciences), or FITC anti-mouse C3 antibody (abcam). […]

A short description of data set [1]: LC-MS analysis of alpelisib in kidneys after oral gavage. Type of data set: in vivo, mouse. As to conditions: 2 hours after oral gavage. The protocol:
Each tissue type was homogenized in 100% cold methanol with tissue-to-solvent ratio of 1-mg tissue to 5-μl methanol. After sonication of 20 s, the tissue extract was centrifuged at 13,000 g for 30 min and then injected onto a Phenomenex Kinetex XB-C18 HPLC column (100 mm by 2.1 mm) at 45° C. Alpelisib was analyzed by reverse-phase HPLC (Shimadzu LCMS system 8040 interfaced with the LabSolutions software). Twenty […] of tissue extracts were injected onto a column, and the mobile phase used for the separation consisted of two eluants: Solvent A was 0.1% formic acid in ddH20, and solvent B was acetonitrile with 0.1% of formic acid. Compounds were separated by the following discontinuous gradient at a flow rate of 0.6 ml/min: The initial concentration of 20% in solvent B increase to 70% over 6 min, and this was followed by a decrease to 20% over the next minute, and the initial conditions were then maintained for 14 min. The alpelisib was monitored spectrophotometrically by absorbance (photodiode detector) from 205 to 600 nm and by tandem mass detection. The mass measurement was implemented in positive ion mode using multiple reaction monitoring (MRM) with an electrospray ionization source. […] The quantification was done by integration of the peak absorbance area using a calibration curve established with various known concentrations of alpelisib. […]

For `Cc1nc(NC(=O)N2CCC[C@H]2C(N)=O)sc1-c1ccnc(C(C)(C)C(F)(F)F)c1` [alpelisib, Alpelisib], the proteinuria entry in the data set on MRL-lpr mice (12 weeks old females, 4 consecutive weeks) is “proteinuria reduction”. Besides, in the data set on MRL-lpr mice (12 weeks old, 4 weeks), the “Cola1 and Cola3 mRNA expression” value is recorded as “improved”; the dsDNA antibodies result is on record as “significantly reduced”; the “glomerular AKT/mTOR pathway” value is “inhibited”; the glomerular lesion score result is reported as “improved”. Also, in the data set on MRL-lpr mice (vs vehicle), the “expression of podocyte differentiation markers” value is listed as “increased”. Also, the “alpelisib in kidneys (LC-MS)” value in data set [1] is “detectable”.
